Results taken from paper PMC12298827, “Subchronic Toxicities of Four Per- and Polyfluoroalkyl Substances (PFASs) by Oral Exposure in Sprague–Dawley Rats” (Toxics, 2025).

System: male and female Sprague–Dawley rats
Assay: 90-day subchronic oral gavage toxicity study
Type: in vivo, rat
Set-up: key to NOEL, absolute liver weight increase / LOEL, absolute liver weight increase / NOEL, relative kidney weight increase / LOEL, relative kidney weight increase / NOEL, absolute kidney weight increase / LOEL, absolute kidney weight increase / NOEL, relative liver weight increase / LOEL, relative liver weight increase: NR: no response, no statistically significant dose-dependent changes
Protocol: Subchronic (90-day) studies were performed in accordance with current U.S. EPA’s Toxic Substances Control Act Good Laboratory Practice (GLP) Standards, with the following two general exceptions to the GLP guidelines: Analysis of the dose formulations was conducted according to RTI-approved Standard Operating Procedures, and corn oil (the vehicle) was not characterized (certificate of analysis from the vendor is available in the appendices to the final reports). Male and female Sprague–Dawley rats (five dose levels plus a control, n = 10/sex/dose group, corn oil vehicle dose volume of 3 mL/kg; oral gavage) were used in these studies, and the rats were euthanized on SD 91. The dose levels for PFHI were 0, 12.5, 25, 50, 100, and 200 mg/kg-day. The dose levels for MHFPK were 0, 18.8, 37.5, 75, 150, and 300 mg/kg-day. The dose levels for PFNAC were 0, 0.1, 0.3, 1.0, 3.0, and 10 mg/kg-day for male rats and 0, 0.3, 1.0, 3.0, 10, and 30 mg/kg-day for female rats. For CTFPA, the dose levels were 0, 1.9, 3.8. 7.5, 15, and 30 mg/kg-day for male rats and 0, 6.3, 12.5, 25, 50, and 100 mg/kg-day for female rats. For each PFAS, three batches of dosing solution were prepared. The time between the batch preparation of the dosing solutions ranged between 29 and 39 days. Blood samples were collected from all the rats at termination for serum chemistry, hematology, coagulation, and the analysis of the parent PFAS chemical in the plasma. In vivo data collection and further detail on the endpoints examined postmortem are described below.
The rats were observed twice daily for morbidity and mortality throughout the study period. At least once prior to randomization to test groups and weekly thereafter, the rats were physically examined, and bodyweights were obtained. Feed consumption was quantified weekly starting on SD 1.
Neurotoxicity was evaluated using the functional observational battery (FOB) and measuring locomotor activity (LMA) 2–4 h post dosing on SDs 78–80 and 80–84, respectively. For both the 14- and 90-day studies, an ophthalmologic examination was conducted prior to randomization and near the end of the study, using indirect ophthalmoscopy and slit–lamp biomicroscopy (as needed) after the administration of a mydriatic solution.
Hematology, biochemistry, and coagulation endpoints were measured at the termination of the study. A Siemens Advia 2120i hematology analyzer (Siemens Healthineers, Erlangen, Germany) was used to measure (or calculate) the parameters related to the complete blood count, leukocyte differential count, and reticulocyte count. The hematology parameters are listed and described in Table 2. The prothrombin time […] and activated partial thromboplastin time (APTT) were measured using an Instrumentation Laboratory (Bedford, MA, USA) ACL Elite Pro coagulation analyzer (laser–nephelometric centrifugal method).
At necropsy, the rats were visually examined for external abnormalities and organ weights (absolute and relative to the BW and brain weight), which were recorded (paired organs weighed together). The tissues were preserved in 10% neutral buffered formalin (NBF), except for the ocular tissues, testes, and epididymides, which were preserved in modified Davidson’s fixative and later transferred to 10% NBF. Bone marrow smears were prepared from the femurs, and the slides were air-dried, fixed in methanol, stained, and stored at room temperature for possible future evaluation. The preserved tissues were embedded in paraffin, sectioned, stained with hematoxylin and eosin, and examined by a board-certified veterinary pathologist.
Statistical analysis was performed using Provantis™ Version 10 or greater (Instem LSS, Limited; Stone, Staffordshire, UK). Differences among the treatment groups compared to the control were evaluated using one-way analysis of variance (ANOVA) if the underlying assumptions of a normal distribution (Shapiro–Wilk test) and the homogeneity of the variance (Levene’s test) were satisfied. […]

## O=C(O)C(F)(Cl)C(F)(F)F (stereo not shown) [CTFPA, 2-Chloro-2,3,3,3-tetrafluoropropanoic acid]
90-day, both sexes, all doses
  Bodyweight (BW) and bodyweight gain: None CTPFA related
  Clinical chemistry: From minimal to mild increases in albumin and the A/G ratio in males at ≥7.5 mg/kg-day and in females at ≥50 mg/kg; only in males—from minimal to mild decreases in globulin at ≥7.5 mg/kg-day; from minimal to mild increases in ALPi at ≥7.5 mg/kg-day, and minimally increased BUN at 30 mg/kg-day
  Clinical observations: None
  Coagulation endpoints: From minimal to mild dose-dependent decreased APTT in males at ≥3.8 mg/kg; no effect in females
  Feed consumption: Significant non-adverse increases in males at ≥3.8 mg/kg-day; minor effects in females, not considered as CTFPA related
  Functional observational battery: No changes
  Gross lesions: None considered as CTFPA related
  Hematology: From minimal to mild decreases in red cell mass (RBC, HCT, and HGB) and increases in RDW in males at ≥7.5 mg/kg-day; no similar effect in females; from minimal to mild increased MPV in males at ≥3.8 mg/kg-day and in females at ≥50 mg/kg-day
  Histopathology: The liver of males and females; the heart and nasal turbinates of males
  Locomotor activity: No effects
  Morbidity and mortality: None
  Ophthalmology: No ocular lesions
  Organ weight changes: Mean absolute and/or relative liver weight increases in males at ≥3.8 mg/kg-day and in females at ≥25 mg/kg-day ^6; mean thymus weights increased in males at ≥15 mg/kg-day; mean kidney weights increased in females at ≥50 mg/kg-day
female
  BMD10, absolute liver weight increase: 13.6 mg/kg-day
  BMDL, absolute liver weight increase: 5.1 mg/kg-day
  LOEL, absolute kidney weight increase: NR
  LOEL, absolute liver weight increase: 25 mg/kg-day
  LOEL, relative kidney weight increase: NR
  LOEL, relative liver weight increase: 25 mg/kg-day
  NOEL, absolute kidney weight increase: NR
  NOEL, absolute liver weight increase: 12.5 mg/kg-day
  NOEL, relative kidney weight increase: NR
  NOEL, relative liver weight increase: 12.5 mg/kg-day
female, 1.9 mg/kg-day
  A/G: 1.10±0.09 ratio
  ALB: 4.07 ± 0.31 g/dL
  ALPi: 49.7±22.7 U/L
  BUN: 16.4 ± 3.6 mg/dL
  CHOL: 94.7 ± 23.9 mg/dL
  GLOB: 3.69 ± 0.19 g/dL
  GLUC: 140.7 ± 21.5 mg/dL
female, 3.8 mg/kg-day
  A/G: 1.17±0.10 ratio
  ALB: 4.41 ± 0.33 g/dL
  ALPi: 56.6±19.8 U/L
  BUN: 16.5 ± 3.0 mg/dL
  CHOL: 95.9 ± 14.5 mg/dL
  GLOB: 3.78 ± 0.20 g/dL
  GLUC: 133.0 ± 25.5 mg/dL
female, 6.3 mg/kg-day
  % BW Gain: 59.29%
  % Diff, % BW Gain: 12.55%
  % Diff, Total BW change: 13.40%
  % Diff, Total Food Consumed: 8.28%
  APTT: 17.76 s
  HCT: 47.57±2.23%
  HGB: 15.03 ± 0.80 g/dL
  Kidney Weight: 1.91 g
  Kidney/Body Weight: 0.57%
  Kidney/Brain Weight: 95.5%
  Liver Weight: 8.76 g
  Liver/Body Weight: 2.59%
  Liver/Brain Weight: 437%
  MPV: 7.57 ± 0.49 fL
  PT: 14.58 s
  Total BW change: 129.35 g
  Total Food Consumed: 1671 g
female, 7.5 mg/kg-day
  A/G: 1.18±0.14 ratio
  ALB: 4.36 ± 0.42 g/dL
  ALPi: 54.6±16.8 U/L
  BUN: 16.4 ± 2.4 mg/dL
  CHOL: 98.2 ± 26.4 mg/dL
  GLOB: 3.70 ± 0.28 g/dL
  GLUC: 143.6 ± 21.3 mg/dL
female, 12.5 mg/kg-day
  % BW Gain: 56.17%
  % Diff, % BW Gain: 6.64%
  % Diff, Total BW change: 5.12%
  % Diff, Total Food Consumed: 1.02%
  APTT: 16.20 s
  HCT: 45.99±2.31%
  HGB: 14.52 ± 0.79 g/dL
  Kidney Weight: 1.97 g
  Kidney/Body Weight: 0.60%
  Kidney/Brain Weight: 93.7%
  Liver Weight: 8.97 g
  Liver/Body Weight: 2.71%
  Liver/Brain Weight: 428%
  MPV: 8.00 ± 0.97 fL
  PT: 14.17 s
  Total BW change: 119.91 g
  Total Food Consumed: 1559 g
female, 15 mg/kg-day
  A/G: 1.19±0.08 ratio
  ALB: 4.46 ± 0.44 g/dL
  ALPi: 57.7±20.2 U/L
  BUN: 16.3 ± 2.3 mg/dL
  CHOL: 96.5 ± 26.2 mg/dL
  GLOB: 3.73 ± 0.20 g/dL
  GLUC: 154.6 ± 21.6 mg/dL
female, 25 mg/kg-day
  % BW Gain: 53.36%
  % Diff, % BW Gain: 1.29%
  % Diff, Total BW change: 1.52%
  % Diff, Total Food Consumed: 2.96%
  APTT: 21.82 s
  HCT: 46.61±2.96%
  HGB: 14.62 ± 1.04 g/dL
  Kidney Weight: 1.97 g
  Kidney/Body Weight: 0.60%
  Kidney/Brain Weight: 95.0%
  Liver Weight: 9.97 g
  Liver/Body Weight: 3.02%
  Liver/Brain Weight: 483%
  MPV: 7.65 ± 0.50 fL
  PT: 14.34 s
  Total BW change: 115.80 g
  Total Food Consumed: 1589 g
female, 30 mg/kg-day
  A/G: 1.22±0.07 ratio
  ALB: 4.62 ± 0.45 g/dL
  ALPi: 74.1±17.5 U/L
  BUN: 18.3 ± 2.5 mg/dL
  CHOL: 101.9 ± 15.8 mg/dL
  GLOB: 3.77 ± 0.25 g/dL
  GLUC: 153.4 ± 21.2 mg/dL
female, 50 mg/kg-day
  % BW Gain: 51.94%
  % Diff, % BW Gain: -1.40%
  % Diff, Total BW change: -0.34%
  % Diff, Total Food Consumed: 2.22%
  APTT: 17.22 s
  HCT: 45.75±1.73%
  HGB: 14.30 ± 0.57 g/dL
  Kidney Weight: 2.07 g
  Kidney/Body Weight: 0.63%
  Kidney/Brain Weight: 102%
  Liver Weight: 10.49 g
  Liver/Body Weight: 3.21%
  Liver/Brain Weight: 520%
  MPV: 8.10 ± 0.46 fL
  PT: 14.57 s
  Total BW change: 113.68 g
  Total Food Consumed: 1577 g
female, 100 mg/kg-day
  % BW Gain: 49.85%
  % Diff, % BW Gain: -5.37%
  % Diff, Total BW change: -5.90%
  % Diff, Total Food Consumed: 4.68%
  APTT: 21.23 s
  HCT: 46.76±2.13%
  HGB: 14.60 ± 0.66 g/dL
  Kidney Weight: 2.05 g
  Kidney/Body Weight: 0.65%
  Kidney/Brain Weight: 104%
